# Assay results published in patent US20250339531A1, “DUX4 POLYPEPTIDES AND NUCLEIC ACIDS FOR TREATING INFLAMMATORY AND AUTOIMMUNE CONDITIONS” (Fred Hutchinson Cancer Center, priority 2021, published 2025).
# Columns and labels:
# [1] = tested on: de novo protein synthesis; experiment: HPG Click-iT labeling of nascent proteins; format: cell-based, human; details: FSHD myotubes and SuSa cells co-stained for H3.X/Y
# Method: Cells were incubated for 30 minutes in DMEM or RPMI media depleted for methionine and cysteine (Gibco), followed by a 1-hour incubation in methionine-depleted media supplemented with 200 μM HPG (Sigma). Cells were fixed with 4% paraformaldehyde (Electron Microscopy Sciences) diluted in PBS for 10 minutes at room temperature and stained with Click-iT HPG Alexa Fluor 488 Protein Synthesis Assay Kit (Invitrogen) according to manufacturer's protocol.
# IDO1 = experiment: Immunofluorescence of IFNG-induced IDO1 in FSHD MB200 myotubes; format: cell-based, human; details: DUX4-positive versus DUX4-negative FSHD myotubes
# Method: All myoblast experiments were conducted in immortalized MB135 or MB200 myoblast cell lines (isolated from a control or FSHD2 subject, respectively cultured in Ham's F-10 Nutrient Mix (Gibco) supplemented with 15% fetal bovine serum (Hyclone), 100 U/100 μg/ml penicillin/streptomycin (Gibco), 1 μM dexamethasone (Sigma), and 10 ng/ml recombinant human basic fibroblast growth factor (PeproTech). To differentiate the myoblasts to myotubes, media was changed to DMEM supplemented with 10 μg/ml insulin (Sigma) and 10 μg/ml transferrin (Sigma). Cell lines containing doxycycline-inducible transgenes were additionally cultured with 2 μg/mL puromycin (Sigma). Transgenes were induced with 1 μg/mL of doxycycline (Sigma) for 4 hours prior to other treatments for a total of 20 hrs. The Kitra-SRS cells (RRID:CVCL_YI69) were provided by Dr. H. Otani and Osaka University (Nakai et al., 2019) and were cultured in DMEM supplemented with 10% fetal bovine serum (Hyclone) and 100 U/100 μg/ml penicillin/streptomycin (Gibco). Biological replicates consisted of independent but parallel experiments, such as simultaneously stimulating three cell culture plates with IFNγ. Technical replicates consisted of repeat measurements of the same biological sample, such as loading the same biological sample in triplicate for analysis by RT-qPCR. […]
substance,measurement,setting,value
endogenous DUX4: DUX4 expressed endogenously in FSHD myotubes and SuSa cells,HPG Click-iT signal in cells with endogenous expression,[1],dramatic reduction in HPG Click-iT signal
same,IFNG induction of IDO1,IDO1,sufficient to prevent ISG induction by IFNG
